Test results taken from US11028069B2, “Salt of substituted piperidine compound” (TAIHO PHARMACEUTICAL CO., LTD., priority 2016, dated 2021).
Where a name gives a salt, the structure may show the parent alone.

Key:
[1] = Solubility measurement, Japanese Pharmacopoeia Dissolution test; assay type: physicochemical; conditions: crystals; for solubility, 1st fluid for dissolution test: Japanese Pharmacopoeia 1st fluid for dissolution test; for solubility, 2nd fluid for dissolution test: Japanese Pharmacopoeia 2nd fluid for dissolution test
Experimental: The solubility measurement was conducted on the hydrochloride salt, the mesylate salt, the potassium salt, and the sodium salt of Compound 1 and the free form of Compound 1. Specifically, the solubility of the samples: the crystals of the hydrochloride salt of Compound 1 produced in Example 1; the crystals of the mesylate salt of Compound 1 produced in Comparative Example 1; the crystals of the potassium salt of Compound 1 produced in Comparative Example 2; the crystals of the sodium salt of Compound 1 produced in Comparative Example 3; and the crystal of the free form of Compound 1, in the 1st and 2nd fluids for dissolution test according to Japanese Pharmacopoeia was measured according to Japanese Pharmacopoeia, Dissolution test.

[2] = Stability test (solid change) by DSC measurement; assay type: physicochemical; conditions: crystals, 10° C./min, room temperature to 300° C.
Experimental: The DSC measurement was conducted according to the following test conditions. • Equipment: TA Instruments Q1000 • Sample: about 5 mg • Rate of temperature increase: 10° C./min • Measurement temperature: Room temperature to 300° C.

[3] = Absorption test, oral administration to mice, plasma concentration by LC/MS; assay type: in vivo; conditions: BALB/cA mice, 50 mg/kg in terms of Compound 1, suspended in 0.5% HPMC
Experimental: The hydrochloride salt of Compound 1 was suspended in 0.5% HPMC, and orally administered to BALB/cA mice at 50 mg/kg in terms of the dose of Compound 1. At 0.5, 1, 2, 4, and 6 hours after the oral administration, the blood was collected from the eyeground, and the plasma was obtained. The compound concentration in the obtained plasma was measured by LC/MS (Agilent Technologies Inc. Agilent 1200, AB Sciex Pte. Ltd. AB Sciex API400) and the oral absorption was evaluated.

[4] = Dynamic vapor sorption system (DVS) analysis (hygroscopicity); assay type: physicochemical; conditions: increase of humidity from 5% to 75% RH, 25° C.
Experimental: The dynamic vapor sorption system (DVS) analysis was conducted under the following conditions. • Equipment: TA Instruments VTI SGA-100 • Sample: about 10 mg • Measurement temperature: 25° C. • RH steps: 5-95-1% RH by 5% RH
The hygroscopicity of the hydrochloride salt of Compound 1 obtained in Example 1 and the potassium salt obtained in Comparative Example 2 was examined by dynamic vapor sorption system (DVS) analysis. The adsorption and desorption data was collected at 5% relative humidity (RH) intervals in the range of 5% to 95% RH. Before the measurement, the temperature was increased at 1° C./min to 25° C. under nitrogen purging and the salts were dried for up to 6 hours until the weight change in 5 minutes became less than 0.0100%. At the time of the measurement, up to 2 hours of equilibration was conducted until the weight change in 5 minutes became less than 0.0100%.

[5] = Stability test (purity) by liquid chromatography after storage; assay type: physicochemical; conditions: for purity (%) in samples, 40° C. (open system): crystals left at 40° C. (open system) for 1 month; for purity (%) in samples, 60° C. (open system): crystals left at 60° C. (open system) for 1 month; for purity (%) in samples, under light irradiation: crystals left under light irradiation (1200000 Lux·hr) for 1 month; for purity (%) in samples, before starting test: crystals
Experimental: The measurement by liquid chromatography was conducted according to the following test conditions. • Equipment: Agilent Technologies, Inc., 1200 Series Binary LC System • Mobile phase A: 10 mM Na2HPO4 aqueous solution (pH 6.5) • Mobile phase B: Acetonitrile • Gradient: described in Table 1 • Column: Ascentis Express C18, 150 mm×4.6 mm i.d., 2.7 μm • Measurement wavelength: 210 nm
The crystals of the hydrochloride salt, the mesylate salt, the potassium salt, the sodium salt, and the free form of Compound 1 obtained in Example 1 and Comparative Examples 1 to 4 were each left under conditions at 40° C. (open system), at 60° C. (open system), and under light irradiation (1200000 Lux·hr) for 1 month. Subsequent measurement of purity by liquid chromatography indicated the purity change between before and after the test was 0.2% or less in any of the conditions.

SMILES	solubility, 1st fluid for dissolution test [1] [µg/mL]	solubility, 2nd fluid for dissolution test [1] [µg/mL]	DSC chart: endothermic and exothermic processes at relatively low temperatures (solid change) [2]	Plasma concentration AUC0-6 h [3] [µM·h]	weight change in DVS analysis ([4]; listed as sodium salt of Compound 1) [%]	purity (%) in samples, 40° C. (open system) [5] [%]	purity (%) in samples, 60° C. (open system) [5] [%]	purity (%) in samples, under light irradiation [5] [%]	purity (%) in samples, before starting test [5] [%]	weight change in DVS analysis ([4]; listed as hydrochloride salt of Compound 1)	weight change in DVS analysis ([4]; listed as hydrochloride salt of the present invention)	weight change in DVS analysis [4]
Cc1cc(Nc2nc(CC3(C(=O)O)CCN(C(=O)c4cccc(Cl)c4Cl)CC3)ccc2F)n[nH]1 [Free form, 1-(2,3-dichlorobenzoyl)-4-((5-fluoro-6-(5-methyl-1H-pyrazol-3-ylamino)pyridin-2-yl)methyl)piperidine-4-carboxylic acid]	24	6	such charts were not obtained	0.43								
Cc1cc(Nc2nc(CC3(C(=O)O)CCN(C(=O)c4cccc(Cl)c4Cl)CC3)ccc2F)n[nH]1 [Sodium salt, 1-(2,3-dichlorobenzoyl)-4-((5-fluoro-6-(5-methyl-1H-pyrazol-3-ylamino)pyridin-2-yl)methyl)piperidine-4-carboxylic acid]	>1000	>1000	charts suggesting endothermic and exothermic processes at relatively low temperatures were obtained		≥ 40							
Cc1cc(Nc2nc(CC3(C(=O)O)CCN(C(=O)c4cccc(Cl)c4Cl)CC3)ccc2F)n[nH]1 [Mesylate salt, 1-(2,3-dichlorobenzoyl)-4-((5-fluoro-6-(5-methyl-1H-pyrazol-3-ylamino)pyridin-2-yl)methyl)piperidine-4-carboxylic acid]	490	420	such charts were not obtained									
Cc1cc(Nc2nc(CC3(C(=O)O)CCN(C(=O)c4cccc(Cl)c4Cl)CC3)ccc2F)n[nH]1 [Hydrochloride salt, 1-(2,3-dichlorobenzoyl)-4-((5-fluoro-6-(5-methyl-1H-pyrazol-3-ylamino)pyridin-2-yl)methyl)piperidine-4-carboxylic acid]	>1000	>1000	such charts were not obtained	18.2		99.2	99.3	99.4	99.4	less than 0.5%	less than 0.5%	
Cc1cc(Nc2nc(CC3(C(=O)O)CCN(C(=O)c4cccc(Cl)c4Cl)CC3)ccc2F)n[nH]1 [Potassium salt, 1-(2,3-dichlorobenzoyl)-4-((5-fluoro-6-(5-methyl-1H-pyrazol-3-ylamino)pyridin-2-yl)methyl)piperidine-4-carboxylic acid]	>1000	730	charts suggesting endothermic and exothermic processes at relatively low temperatures were obtained			99.7	99.8	99.8	99.8			exceeded 14%
